In PubChem BioAssay AID248 (DTP/NCI, 2004):
Inconclusive results and toxic doses are left out. Rule as the data show it: active = T/C of 150% or more; inactive = T/C below 125%.

Test system: L1210 leukemia ip in BDF1 mice, survival T/C
Experiment: NCI In Vivo Anticancer Drug Screen. Data for tumor model L1210 Leukemia (intraperitoneal) in B6D2F1 (BDF1) mice
Conditions: endpoint: mean survival time, higher = longer survival
How it was run: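 Tumor was transplanted into mice, which were then dosed with test compound or vehicle alone. Survival was recorded for each group, and the treated figure was expressed relative to the control figure.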

[1] = dose: 25.0 mg/kg/injection, schedule: Q01DX009 (ip), vehicle: saline
[2] = dose: 50.0 mg/kg/injection, schedule: Q01DX009 (ip), vehicle: saline
[3] = dose: 100.0 mg/kg/injection, schedule: Q04DX003 (ip), vehicle: saline
[4] = dose: 100.0 mg/kg/injection, schedule: Q01DX009 (ip), vehicle: saline
[5] = dose: 200.0 mg/kg/injection, schedule: Q01DX009 (ip), vehicle: saline
[6] = dose: 100.0 mg/kg/injection, schedule: Q04DX003 (ip), vehicle: Klucel (hydroxypropylcellulose) (HPC)
[7] = dose: 200.0 mg/kg/injection, schedule: Q04DX003 (ip), vehicle: Klucel (hydroxypropylcellulose) (HPC)
[8] = dose: 400.0 mg/kg/injection, schedule: Q04DX003 (ip), vehicle: Klucel (hydroxypropylcellulose) (HPC)
[9] = dose: 100.0 mg/kg/injection, schedule: Q01DX001 (ip), vehicle: Klucel (hydroxypropylcellulose) (HPC)
[10] = dose: 200.0 mg/kg/injection, schedule: Q01DX001 (ip), vehicle: Klucel (hydroxypropylcellulose) (HPC)
[11] = dose: 400.0 mg/kg/injection, schedule: Q01DX001 (ip), vehicle: Klucel (hydroxypropylcellulose) (HPC)
[12] = dose: 100.0 mg/kg/injection, schedule: Q01DX001 (ip), vehicle: saline
[13] = dose: 200.0 mg/kg/injection, schedule: Q01DX001 (ip), vehicle: saline
[14] = dose: 400.0 mg/kg/injection, schedule: Q01DX001 (ip), vehicle: saline
[15] = dose: 25.0 mg/kg/injection, schedule: Q01DX009 (ip), vehicle: saline with Tween-80
[16] = dose: 50.0 mg/kg/injection, schedule: Q01DX009 (ip), vehicle: saline with Tween-80
[17] = dose: 100.0 mg/kg/injection, schedule: Q01DX009 (ip), vehicle: saline with Tween-80
[18] = dose: 100.0 mg/kg/injection, schedule: Q04DX002 (ip), vehicle: Klucel (hydroxypropylcellulose) (HPC)
[19] = dose: 200.0 mg/kg/injection, schedule: Q04DX002 (ip), vehicle: Klucel (hydroxypropylcellulose) (HPC)
[20] = dose: 400.0 mg/kg/injection, schedule: Q04DX002 (ip), vehicle: Klucel (hydroxypropylcellulose) (HPC)

Measured: T/C

COc1cc([C@@H]2c3cc4c(cc3[C@H](SC(=N)N)[C@H]3COC(=O)[C@H]23)OCO4)cc(OC)c1OC
inactive: dose: 5.0 mg/kg/injection, schedule: Q01DX Z (ip), vehicle: carboxymethylcellulose (CMC) 98 % of control | dose: 6.0 mg/kg/injection, schedule: Q01DX Z (ip), vehicle: carboxymethylcellulose (CMC) 109 % of control | dose: 10.0 mg/kg/injection, schedule: Q01DX Z (ip), vehicle: carboxymethylcellulose (CMC) 103 % of control | dose: 12.0 mg/kg/injection, schedule: Q01DX Z (ip), vehicle: carboxymethylcellulose (CMC) 112 % of control | dose: 18.0 mg/kg/injection, schedule: Q01DX Z (ip), vehicle: carboxymethylcellulose (CMC) 108 % of control | dose: 18.0 mg/kg/injection, schedule: Q01DX Z (ip), vehicle: methylcellulose (MC) 103 % of control | dose: 24.0 mg/kg/injection, schedule: Q01DX Z (ip), vehicle: carboxymethylcellulose (CMC) 112 % of control | [1] 118 % of control | dose: 27.0 mg/kg/injection, schedule: Q01DX Z (ip), vehicle: carboxymethylcellulose (CMC) 100 % of control | dose: 37.5 mg/kg/injection, schedule: Q04DX003 (ip), vehicle: saline 104 % of control | dose: 48.0 mg/kg/injection, schedule: Q01DX Z (ip), vehicle: carboxymethylcellulose (CMC) 109 % of control | [2] 88 % of control | dose: 60.0 mg/kg/injection, schedule: Q01DX Z (ip), vehicle: methylcellulose (MC) 109 % of control | dose: 75.0 mg/kg/injection, schedule: Q04DX003 (ip), vehicle: saline 105 % of control | dose: 150.0 mg/kg/injection, schedule: Q04DX003 (ip), vehicle: saline 89 % of control

C[N+]1(C)C2CSCC1CC(O)C2 (stereo not drawn)
inactive: dose: 12.5 mg/kg/injection, schedule: Q01DX009 (ip), vehicle: saline 105 % of control | dose: 12.5 mg/kg/injection, schedule: Q04DX003 (ip), vehicle: saline 104 % of control | [1] 117 % of control | dose: 25.0 mg/kg/injection, schedule: Q04DX003 (ip), vehicle: saline 98 % of control | [2] 106 % of control | dose: 50.0 mg/kg/injection, schedule: Q04DX003 (ip), vehicle: saline 102 % of control | [3] 101 % of control

C=C[CH2][Sn]([Br])([Br])[Br]
inactive: [2] 115 % of control | [4] 95 % of control | [5] 86 % of control

C=C(C)C12OC3(c4ccccc4)OC1C1C4OC4(CO)C(O)C4(O)C(=O)C(C)=CC4C1(O3)C(C)C2OC(=O)/C=C/C=C/c1ccccc1 (stereo not drawn)
inactive: dose: 25.0 micrograms/kg/injection, schedule: Q01DX009 (ip), vehicle: alcohol 97 % of control | dose: 50.0 micrograms/kg/injection, schedule: Q01DX009 (ip), vehicle: alcohol 105 % of control | dose: 100.0 micrograms/kg/injection, schedule: Q01DX009 (ip), vehicle: alcohol 92 % of control | dose: 200.0 micrograms/kg/injection, schedule: Q01DX009 (ip), vehicle: alcohol 92 % of control | dose: 400.0 micrograms/kg/injection, schedule: Q01DX009 (ip), vehicle: alcohol 103 % of control

CC1=C/C=C/C(C)C(O)C(C)C(O)C(C)C(O)C(C)C(O)C(C)CC=C(C)C(=O)c2c(O)c(C)cc3c2C(=O)C(C)=C(NC1=O)C3=O (stereo not drawn)
inactive: [6] 103 % of control | [7] 100 % of control | [8] 101 % of control

CC(C)(C)c1cc([N+](=O)[O-])cc([N+](=O)[O-])c1O
inactive: dose: 1.56 mg/kg/injection, schedule: Q01DX009 (ip), vehicle: saline with Tween-80 93 % of control | dose: 1.56 mg/kg/injection, schedule: Q04DX003 (ip), vehicle: saline with Tween-80 100 % of control | dose: 3.13 mg/kg/injection, schedule: Q01DX009 (ip), vehicle: saline with Tween-80 93 % of control | dose: 3.13 mg/kg/injection, schedule: Q04DX003 (ip), vehicle: saline with Tween-80 96 % of control | dose: 6.25 mg/kg/injection, schedule: Q01DX009 (ip), vehicle: saline with Tween-80 96 % of control | dose: 6.25 mg/kg/injection, schedule: Q04DX003 (ip), vehicle: saline with Tween-80 107 % of control

O=C(COc1ccc(Cl)cc1C(=O)O)NCc1cccc(NC(=O)Nc2ccc(S(=O)(=O)F)cc2)c1
inactive: [9] 96 % of control | [10] 104 % of control | [11] 105 % of control

Cc1ccccc1S(=O)(=O)CC(Cl)c1ccccc1 (stereo not drawn)
inactive: [12] 102 % of control | [4] 93 % of control | [13] 102 % of control | [5] 91 % of control | [14] 107 % of control | dose: 400.0 mg/kg/injection, schedule: Q01DX009 (ip), vehicle: saline 91 % of control

Fc1nc2nc(C(F)(F)F)[nH]c2nc1F
inactive: [15] 93 % of control | [16] 90 % of control | [17] 95 % of control | [4] 103 % of control | dose: 100.0 mg/kg/injection, schedule: Q04DX003 (ip), vehicle: saline with Tween-80 95 % of control | dose: 200.0 mg/kg/injection, schedule: Q04DX003 (ip), vehicle: saline with Tween-80 105 % of control | dose: 400.0 mg/kg/injection, schedule: Q04DX003 (ip), vehicle: saline with Tween-80 90 % of control

Cc1c2ccccc2c(CSCC(N)C(=O)O)c2ccc3ccccc3c12 (stereo not drawn)
inactive: [17] 87 % of control | dose: 400.0 mg/kg/injection, schedule: Q01DX009 (ip), vehicle: saline with Tween-80 87 % of control

O=C1c2cccc3cc([N+](=O)[O-])cc(c23)C(=O)N1CCCN(CCO)CCO
inactive: dose: 12.5 mg/kg/injection, schedule: Q01DX009 (ip), vehicle: Klucel (hydroxypropylcellulose) (HPC) 104 % of control | dose: 25.0 mg/kg/injection, schedule: Q01DX009 (ip), vehicle: Klucel (hydroxypropylcellulose) (HPC) 105 % of control | dose: 50.0 mg/kg/injection, schedule: Q01DX009 (ip), vehicle: Klucel (hydroxypropylcellulose) (HPC) 91 % of control

CC(C)=CCC/C(C)=C/CC/C(C)=C/CC(=O)OCC=C(C)C
inactive: dose: 100.0 mg/kg/injection, schedule: Q04DX002 (ip), vehicle: saline with Tween-80 89 % of control | dose: 200.0 mg/kg/injection, schedule: Q04DX002 (ip), vehicle: saline with Tween-80 99 % of control | dose: 400.0 mg/kg/injection, schedule: Q04DX002 (ip), vehicle: saline with Tween-80 99 % of control

COc1ccc(NC(=O)NCc2ccc(C)c(C)c2)cc1
inactive: [18] 118 % of control | [19] 96 % of control | [20] 104 % of control

CSc1cc(C)n2nnnc2n1
inactive: dose: 12.5 mg/kg/injection, schedule: Q01DX001 (ip), vehicle: saline 100 % of control | dose: 25.0 mg/kg/injection, schedule: Q01DX001 (ip), vehicle: saline 96 % of control | dose: 50.0 mg/kg/injection, schedule: Q01DX001 (ip), vehicle: saline 100 % of control

CCOC(=O)C(CC)(CCC(C)C)C(=O)OCC
inactive: [15] 97 % of control | [16] 92 % of control | [17] 95 % of control | [3] 95 % of control | dose: 200.0 mg/kg/injection, schedule: Q04DX003 (ip), vehicle: saline 95 % of control | dose: 400.0 mg/kg/injection, schedule: Q04DX003 (ip), vehicle: saline 95 % of control

CN1C(=O)CN(CCN2CC(=O)N(C)C2=S)C1=S
inactive: [18] 105 % of control | [19] 97 % of control | [20] 90 % of control

Nc1cc2ccc(S(=O)(=O)O)cc2cc1S(=O)(=O)O
inactive: [6] 100 % of control | [7] 97 % of control | [8] 91 % of control

CCNC(=O)NC(C(=O)OCC)C(=O)OCC
inactive: [9] 107 % of control | [10] 98 % of control | [11] 90 % of control

CN(C)P1N(C)CCN1C
inactive: [12] 95 % of control | [13] 106 % of control | [14] 87 % of control

CC(O)C[As](=O)(O)c1cccc(Cl)c1 (stereo not drawn)
inactive: dose: 12.5 mg/kg/injection, schedule: Q01DX001 (ip), vehicle: Klucel (hydroxypropylcellulose) (HPC) 108 % of control
